Source: US20060264447A1, “Fungicidal mixtures for controlling rice pathogens” (priority 2003, published 2006)

System: Cochliobolus miyabeanus
Assay: Activity against brown spot of rice caused by Cochliobolus miyabeanus, protective application
Format: in vivo
Conditions: individual active compound, rice seedlings Tai-Nong 67, protective spray, rated after six days
Description: The active compounds, separately or jointly, were prepared as a stock solution with 0.25% by weight of active compound in acetone or DMSO. 1% by weight of the emulsifier Uniperol® EL (wetting agent having emulsifying and dispersing action based on ethoxylated alkylphenols) was added to this solution, and the solution was diluted with water to the desired concentration.
Leaves of potted rice seedlings of the cultivar “Tai-Nong 67” were sprayed to runoff point with an aqueous suspension of the concentration of active compound stated below. The next day, the plants were inoculated with an aqueous spore suspension of Cochliobolus miyabeanus. The test plants were then placed in climatized chambers at 22-24° C. and 95-99% relative atmospheric humidity for six days. The extent of the development of the infection on the leaves was then determined visually.
Evaluation is carried out by determining the percentage of infected plants. These percentages were converted into efficacies.
The efficacy (E) is calculated as follows using Abbot's formula: E=(1−α/β)·100 α corresponds to the fungicidal infection of the treated plants in % and β corresponds to the fungicidal infection of the untreated (control) plants in %
An efficacy of 0 means that the infection level of the treated plants corresponds to that of the untreated control plants; an efficacy of 100 means that the treated plants are not infected.
The expected efficacies of mixtures of active compounds are determined using Colby's formula (Colby, R. S. Weeds, 15, 20-22, 1967) and compared with the observed efficacies.
Colby's formula: E=x+y−x·y/100 • E expected efficacy, expressed in % of the untreated control, when using the mixture of the active compounds A and B at the concentrations a and b • x efficacy, expressed in % of the untreated control, when using the active compound A at the concentration a • y efficacy, expressed in % of the untreated control, when using the active compound B at the concentration b

## CC1CCN(c2c(-c3c(F)cc(F)cc3F)c(Cl)nc3ncnn23)CC1 [compound I, 5-chloro-7-(4-methylpiperidin-1-yl)-6-(2,4,6-trifluorophenyl)-[1,2,4]triazolo[1,5-a]pyrimidine]
4 ppm in the spray liquor
  Efficacy in % of the untreated control: 5%
16 ppm in the spray liquor
  Efficacy in % of the untreated control: 17%

## C[C@H](Nc1c(-c2c(F)cc(F)cc2F)c(Cl)nc2ncnn12)C(F)(F)F [B]
4 ppm in the spray liquor
  Efficacy in % of the untreated control: 5%
16 ppm in the spray liquor
  Efficacy in % of the untreated control: 41%

## CC1CCN(c2c(-c3c(F)cccc3Cl)c(Cl)nc3ncnn23)CC1 [A]
4 ppm in the spray liquor
  Efficacy in % of the untreated control: 29%
16 ppm in the spray liquor
  Efficacy in % of the untreated control: 53%

## O=[N+]([O-])c1cc(C(F)(F)F)c(Cl)c([N+](=O)[O-])c1Nc1ncc(C(F)(F)F)cc1Cl [compound II, 3-chloro-N-[3-chloro-2,6-dinitro-4-(trifluoromethyl)phenyl]-5-(trifluoromethyl)-2-pyridinamine]
4 ppm in the spray liquor
  Efficacy in % of the untreated control: 5%
16 ppm in the spray liquor
  Efficacy in % of the untreated control: 17%
